Assay results: US20250221413A1, “Use and Preparation Method of Sulfoxamyl, and Oxidation System” (priority 2023, published 2025)
Converted amounts (≈) assume the structure as drawn. “And” between values parts separate entries of the source, which are not always exact repeats. Equal entries are not always repeated. “Also recorded” adds a separate entry of the source. Where two headings read alike, the source gives them in different places.

What was measured:
[1] = system: SD rats; experiment: Acute oral toxicity test, single oral fixed-dose procedure; format: in vivo
Description: Materials: the test agent 98% sulfoxamyl technical, batch number 20230708-1, was provided by Ningxia Hugerise Chemical Co., Ltd. Experimental animals: SPF-grade SD rats, half male and half female, weighing 180 g to 220 g, were provided by Jinan Pengyue Experimental Animal Breeding Co., Ltd., license number SCXK (Lu) 20190003. Rearing environment: the rats were housed in an SPF-grade animal room with free access to water and food, a temperature of 20° C. to 25° C., a humidity of 40% to 60%, and a 12 h/12 h light cycle. Feed: conventional pellet feed was provided by Jinan Pengyue Experimental Animal Breeding Co., Ltd.
The test was conducted in accordance with “Toxicological test methods of pesticides for registration, GB15670.5-2017”, “Acute toxicity test, GB15193.3-2003” and relevant acute toxicity research data.
Methods: a single oral fixed-dose procedure was conducted to preliminarily explore the toxic dose range of sulfoxamyl. LD50 and confidence limits were calculated by using the probability unit method (Bliss method). SD rats were randomly divided into 5 groups, 10 rats in each group, half of them were male and half were female. […] The common ratio value among each dose group was 0.75. After a single oral administration, the mortality rate of the experimental animals was recorded within 24 h and 14 days after administration, while the general condition of the animals was observed, and the food intake and body weight changes were recorded.

[2] = system: Meloidogyne incognita; experiment: Indoor toxicity test against Meloidogyne incognita second-instar larvae (J2); settings: for LC50 / mortality at 3.1 µg/mL / mortality at 6.25 µg/mL / mortality at 12.5 µg/mL / mortality at 25 µg/mL / mortality at 50 µg/mL / mortality at 100 µg/mL: Meloidogyne incognita
Description: Materials: the tested nematodes were collected from three different areas, namely cucumber crops in Dawenkou Town, Tai'an City, Shandong Province, and were all identified as southern root-knot nematodes (Meloidogyne incognita). The diseased roots were washed, cut into small sections of 0.5 cm to 1 cm, rinsed in 1% NaClO solution for about 30 s to 60 s, and rinsed with 200-mesh and 500-mesh sieves to collect nematode eggs for later use. The collected eggs were incubated at 25° C. using the Bayman funnel method and the second-instar larvae were collected 1 time per 24 h to ensure that the second-instar larvae selected each time were fresh and of consistent vitality.
The agent was 98% sulfoxamyl technical, and the comparison agents were 96% oxamyl technical and 87% fosthiazate technical.
The preparation for the agent was in accordance with the provisions for preparation of the liquid medicine in the Agricultural Industry Standard of the People's Republic of China NYT 1833.1-2009 “Guideline for laboratory bioassay of pesticides”, as shown in Table 6.
Methods: according to the experimental plan, the test agent was diluted to different mass concentrations, and 0.5 mL of the agent solution and 0.5 mL of the nematode solution (containing about 100 nematodes) were added into a 24-well cell culture plate. The treatment with each concentration of the agent was repeated 4 times, and auxiliary agent control and blank control were also conducted. […]

[3] = system: Meloidogyne incognita eggs; experiment: Inhibitory effect on hatching of Meloidogyne incognita eggs; format: in vivo
[4] = Meloidogyne incognita, 168 h, egg hatching, 7 d

SMILES: CNC(=O)O/N=C(/C(=O)N(C)C)S(C)(=O)=O [Sulfoxamyl, N,N-dimethyl-2-[[[(methylamino)carbonyl]oxy]imino]-2-(methylsulfonyl)acetamide]
- Main clinical symptom ([1]; single oral dose 50 mg/kg): Asymptomatic
- Death count ([1]; single oral dose 50 mg/kg, 50 mg/kg): 0/6
- Death count ([1]; single oral dose 50 mg/kg, listed as sulfoxamyl, 50 mg/kg): no animals die
- Main clinical symptom ([1]; single oral dose 500 mg/kg): Some rats with intense abdominal breathing,
- Death count ([1]; single oral dose 500 mg/kg, 500 mg/kg): 0/6
- Death count ([1]; single oral dose 500 mg/kg, listed as sulfoxamyl, 500 mg/kg): no animals die
- Main clinical symptom ([1]; single oral dose 1000 mg/kg): Intense abdominal breathing,
- Death count ([1]; single oral dose 1000 mg/kg, 1000 mg/kg): 8/10
- Death count ([1]; single oral dose 1000 mg/kg, listed as sulfoxamyl, 1000 mg/kg): 8
- Main clinical symptom ([1]; single oral dose 2000 mg/kg): Intense abdominal breathing,
- Death count ([1]; single oral dose 2000 mg/kg, 2000 mg/kg): 6/6
- Death count ([1]; single oral dose 2000 mg/kg, listed as sulfoxamyl, 2000 mg/kg): all animals
- Corrected mortality ([2]; 3.1 mg/L, 24 h): 16.24% and 26.66% and 16.93%
- Mortality ([2]; 3.1 mg/L, 24 h): 17.27% and 27.56% and 17.95%
- Corrected mortality ([2]; 3.1 mg/L, 48 h): 26.21% and 30.50% and 18.49%
- Death count ([2]; 3.1 mg/L, 48 h): 21 and 30 and 40 and 23
- Mortality ([2]; 3.1 mg/L, 48 h): 27.27% and 31.50% and 19.66%
- Corrected mortality ([2]; 3.1 mg/L, 72 h): 36.09% and 39.84% and 31.21%
- Death count ([2]; 3.1 mg/L, 72 h): 39 and 41 and 52 and 38
- Mortality ([2]; 3.1 mg/L, 72 h): 37.27% and 40.94% and 32.48%
- Corrected mortality ([2]; 6.25 mg/L, 24 h): 22.19% and 15.49% and 28.36%
- Death count ([2]; 6.25 mg/L, 24 h): 19 and 25 and 20 and 31
- Mortality ([2]; 6.25 mg/L, 24 h): 23.15% and 16.53% and 29.25%
- Corrected mortality ([2]; 6.25 mg/L, 48 h): 30.48% and 22.86% and 33.96%
- Death count ([2]; 6.25 mg/L, 48 h): 36 and 34 and 29 and 37
- Mortality ([2]; 6.25 mg/L, 48 h): 31.48% and 23.97% and 34.91%
- Corrected mortality ([2]; 6.25 mg/L, 72 h): 32.08% and 27.59% and 38.49%
- Death count ([2]; 6.25 mg/L, 72 h): 41 and 36 and 35 and 42
- Mortality ([2]; 6.25 mg/L, 72 h): 33.33% and 28.93% and 39.62%
- Corrected mortality ([2]; 12.5 mg/L, 24 h): 43.94% and 48.97% and 49.86%
- Death count ([2]; 12.5 mg/L, 24 h): 56 and 54 and 62 and 53
- Mortality ([2]; 12.5 mg/L, 24 h): 44.63% and 49.60% and 50.48%
- Corrected mortality ([2]; 12.5 mg/L, 48 h): 56.40% and 56.17% and 57.49%
- Death count ([2]; 12.5 mg/L, 48 h): 67 and 69 and 71 and 61
- Mortality ([2]; 12.5 mg/L, 48 h): 57.02% and 56.80% and 58.10%
- Corrected mortality ([2]; 12.5 mg/L, 72 h): 61.27% and 67.40% and 67.01%
- Death count ([2]; 12.5 mg/L, 72 h): 71 and 75 and 85
- Mortality ([2]; 12.5 mg/L, 72 h): 61.98% and 68.00% and 67.62%
- Corrected mortality ([2]; 25 mg/L, 24 h): 58.55% and 63.70% and 68.85%
- Death count ([2]; 25 mg/L, 24 h): 78 and 75 and 68 and 90
- Mortality ([2]; 25 mg/L, 24 h): 59.06% and 64.15% and 69.23%
- Corrected mortality ([2]; 25 mg/L, 48 h): 63.25% and 67.46% and 68.78%
- Death count ([2]; 25 mg/L, 48 h): 78 and 81 and 72 and 90
- Mortality ([2]; 25 mg/L, 48 h): 63.78% and 67.92% and 69.23%
- Corrected mortality ([2]; 25 mg/L, 72 h): 74.33% and 84.62% and 68.65%
- Death count ([2]; 25 mg/L, 72 h): 78 and 95 and 90
- Mortality ([2]; 25 mg/L, 72 h): 74.80% and 84.91% and 69.23%
- Corrected mortality ([2]; 50 mg/L, 24 h): 82.02%
- Death count ([2]; 50 mg/L, 24 h): 101 and 88 and 92
- Mortality ([2]; 50 mg/L, 24 h): 82.24%
- Death count ([2]; 50 mg/L, 48 h): 108 and 95 and 111 and 98
- Corrected mortality ([2]; 50 mg/L, 72 h): 92.38%
- Death count ([2]; 50 mg/L, 72 h): 115 and 99 and 120 and 101
- Mortality ([2]; 50 mg/L, 72 h): 92.52%
- Death count ([2]; 100 mg/L, 24 h): 105 and 102 and 120 and 107
- Death count ([2]; 100 mg/L, 48 h): 108 and 102 and 121
- Death count ([2]; 100 mg/L, 72 h): 109 and 102 and 121 and 108
- LC90 ([2]; 24 h): 52.89 µg/mL (≈ 210 µM)
- LC90 ([2]; 48 h): 56.41 µg/mL (≈ 225 µM)
- LC90 ([2]; 72 h): 36.84 µg/mL (≈ 147 µM)
- LC50 ([2]; 24 h): 12.5 µg/mL (≈ 49.8 µM)
- mortality at 3.1 µg/mL ([2]; 24 h, 3.1 mg/L): 14.4%
- mortality at 6.25 µg/mL ([2]; 24 h, 6.25 mg/L): 16.4%
- mortality at 12.5 µg/mL ([2]; 24 h, 12.5 mg/L): 51.4%
- mortality at 25 µg/mL ([2]; 24 h, 25 mg/L): 66.1%
- mortality at 50 µg/mL ([2]; 24 h, 50 mg/L): 86.3%
- mortality at 100 µg/mL ([2]; 24 h, 100 mg/L): 96.3%
- mortality at 3.1 µg/mL ([2]; 24 h, read-out: Corrected mortality, 3.1 mg/L, 24 h): 13.4%
- mortality at 6.25 µg/mL ([2]; 24 h, read-out: Corrected mortality, 6.25 mg/L, 24 h): 15.3%
- mortality at 12.5 µg/mL ([2]; 24 h, read-out: Corrected mortality, 12.5 mg/L, 24 h): 50.8%
- mortality at 25 µg/mL ([2]; 24 h, read-out: Corrected mortality, 25 mg/L, 24 h): 65.7%
- mortality at 50 µg/mL ([2]; 24 h, read-out: Corrected mortality, 50 mg/L, 24 h): 86.2%
- mortality at 100 µg/mL ([2]; 24 h, read-out: Corrected mortality, 100 mg/L, 24 h): 96.3%
- LC50 ([2]; 48 h): 10.2 µg/mL (≈ 40.7 µM)
- mortality at 3.1 µg/mL ([2]; 48 h, 3.1 mg/L): 20.2%
- mortality at 6.25 µg/mL ([2]; 48 h, 6.25 mg/L): 31%
- mortality at 12.5 µg/mL ([2]; 48 h, 12.5 mg/L): 61.5%
- mortality at 25 µg/mL ([2]; 48 h, 25 mg/L): 66.1%
- mortality at 50 µg/mL ([2]; 48 h, 50 mg/L): 92.3%
- mortality at 100 µg/mL ([2]; 48 h, 100 mg/L): 99.1%
- mortality at 3.1 µg/mL ([2]; 48 h, read-out: Corrected mortality, 3.1 mg/L, 48 h): 19%
- mortality at 6.25 µg/mL ([2]; 48 h, read-out: Corrected mortality, 6.25 mg/L, 48 h): 30%
- mortality at 12.5 µg/mL ([2]; 48 h, read-out: Corrected mortality, 12.5 mg/L, 48 h): 60.9%
- mortality at 25 µg/mL ([2]; 48 h, read-out: Corrected mortality, 25 mg/L, 48 h): 65.6%
- mortality at 50 µg/mL ([2]; 48 h, read-out: Corrected mortality, 50 mg/L, 48 h): 92.2%
- mortality at 100 µg/mL ([2]; 48 h, read-out: Corrected mortality, 100 mg/L, 48 h): 99.1%
- LC50 ([2]; 72 h): 7.41 µg/mL (≈ 29.5 µM)
- mortality at 3.1 µg/mL ([2]; 72 h, 3.1 mg/L): 37.5%
- mortality at 6.25 µg/mL ([2]; 72 h, 6.25 mg/L): 35.3%
- mortality at 12.5 µg/mL ([2]; 72 h, 12.5 mg/L): 65.1%
- mortality at 25 µg/mL ([2]; 72 h, 25 mg/L): 66.1%
- mortality at 50 µg/mL ([2]; 72 h, 50 mg/L): 98.3%
- mortality at 100 µg/mL ([2]; 72 h, 100 mg/L): 100%
- mortality at 3.1 µg/mL ([2]; 72 h, read-out: Corrected mortality, 3.1 mg/L, 72 h): 36.3%
- mortality at 6.25 µg/mL ([2]; 72 h, read-out: Corrected mortality, 6.25 mg/L, 72 h): 34.1%
- mortality at 12.5 µg/mL ([2]; 72 h, read-out: Corrected mortality, 12.5 mg/L, 72 h): 64.5%
- mortality at 25 µg/mL ([2]; 72 h, read-out: Corrected mortality, 25 mg/L, 72 h): 65.5%
- mortality at 50 µg/mL ([2]; 72 h, read-out: Corrected mortality, 50 mg/L, 72 h): 98.3%
- mortality at 100 µg/mL ([2]; 72 h, read-out: Corrected mortality, 100 mg/L, 72 h): 100%
- killing (indoor nematicidal) activity against Meloidogyne incognita J2, in words ([2]; compared with oxamyl and fosthiazate): high killing activity; also recorded: higher than that of oxamyl; also recorded: higher than that of fosthiazate
- Number of hatched eggs/7 d ([3]; 6.25 mg/L, 7 d): 102 and 92 and 96
- Number of unhatched eggs/7 d ([3]; 6.25 mg/L, 7 d): 31 and 25 and 33
- Number of hatched eggs/7 d ([3]; 12.5 mg/L, 7 d): 83 and 85 and 88
- Number of unhatched eggs/7 d ([3]; 12.5 mg/L, 7 d): 32 and 33 and 40
- Number of hatched eggs/7 d ([3]; 25 mg/L, 7 d): 85 and 79 and 86
- Number of unhatched eggs/7 d ([3]; 25 mg/L, 7 d): 45 and 41 and 38
- Number of hatched eggs/7 d ([3]; 50 mg/L, 7 d): 57 and 55 and 49
- Number of unhatched eggs/7 d ([3]; 50 mg/L, 7 d): 81 and 75 and 77
- Number of hatched eggs/7 d ([3]; 100 mg/L, 7 d): 44 and 40 and 42
- Number of unhatched eggs/7 d ([3]; 100 mg/L, 7 d): 93 and 85 and 88
- IC50 [3, 4]: 59.5 µg/mL (≈ 237 µM)
- IC90 [3, 4]: 511 µg/mL (≈ 2030 µM)
- inhibitory effect on hatching of nematode eggs, in words ([3]; in vivo): desirable inhibitory effect
